Drawing on paper doi:10.1101/2023.08.21.552681v1 (biorxiv, 2023), this text covers Kd for 81 molecules.

Usually Kd stands for the concentration at which binding is half-saturated.

This assay has as its target T1, ctdWDR91 (Homo sapiens, UniProt A4D1P6).
T1 sequence (A4D1P6 392-747): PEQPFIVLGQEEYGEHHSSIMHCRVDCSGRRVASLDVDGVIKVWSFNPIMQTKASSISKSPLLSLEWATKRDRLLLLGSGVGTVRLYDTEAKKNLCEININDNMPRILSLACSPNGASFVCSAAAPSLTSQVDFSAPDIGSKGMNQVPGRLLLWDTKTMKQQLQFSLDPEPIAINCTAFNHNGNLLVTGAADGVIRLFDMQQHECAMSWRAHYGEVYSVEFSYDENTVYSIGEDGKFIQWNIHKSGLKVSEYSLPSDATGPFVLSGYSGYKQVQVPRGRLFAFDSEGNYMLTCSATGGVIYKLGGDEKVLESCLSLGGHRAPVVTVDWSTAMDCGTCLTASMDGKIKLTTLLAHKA
The experiment in a line: biochemical.

`Cc1nc2sccn2c1C(=O)N(C)Cc1cccc(F)c1` [UBGG013392b] came in with a Kd greater than 45 µM.
As for `N#Cc1cccc(CNC(=O)C2=NN(c3ccccc3)C(=O)CN2)c1` [MRGG044820a], the equilibrium dissociation constant (Kd) was greater than 45 µM.
The molecule `CN1C[C@@H]2CN(C(=O)c3cc(Br)c([N+](=O)[O-])[nH]3)C[C@@H]2C1` [MRGG045266a] yielded a Kd greater than 45 µM.
`C[C@H](NC1CCN(C2CC2)C1)c1cccc2cnccc12` (stereo partly drawn) [MRGG045313a] had a Kd greater than 45 µM.
Molecule `N#Cc1cn(CC2CCN(c3ccccc3)C2)c(=O)[nH]c1=O` (stereo not drawn) [MRGG044810a] registered a dissociation constant Kd greater than 45 µM.
Molecule `CN1CCC(O)(CNC(=O)c2cnc3cc[nH]c3c2)C1` (stereo not drawn) [MRGG045295a] showed a dissociation constant (Kd) greater than 45 µM.
As for `c1ccc(-n2ncc3c(NCC4CCN(C5CC5)C4)ncnc32)cc1` (stereo not drawn) [MRGG045311a], the Kd was greater than 45 µM.
Molecule `CN(Cc1ccc(-c2ccc(Cl)cc2)o1)C(=O)CN1C(=O)c2cccnc2C1=O` [MRGG045274a] returned a Kd greater than 45 µM.
As for `COC(=O)c1ccccc1NC(=O)c1ccc2nnsc2c1` [MRGG044841a], the figure is greater than 45 µM; as for `CC(NC(=O)c1ccc2c(=O)n3c(nc2c1)CCC3)c1ccc(Cl)cc1` (stereo not drawn) [MRGG044821a], greater than 45 µM; as for `N#Cc1cc(Br)cc(N2CCCC2)c1` [MRGG044812a], greater than 45 µM.
As for `COc1ccc(C(NC(=O)CN2CCn3ncnc3C2)c2ccc(OC)cc2)cc1` [MRGG044794a], the figure is greater than 45 µM; as for `CC(NC(=O)C1Cc2ccccc2O1)c1cccc(N2CCCC2)c1` (stereo not drawn) [MRGG044823a], greater than 45 µM.
As for `O=c1c2c(F)cccc2ncn1CC1CCN(C2CC2)C1` (stereo not drawn) [MRGG044781a], the figure is greater than 45 µM.
In turn, `CN1CCOC(C(NC(=O)c2cncc3cnccc23)c2ccc(Cl)cc2)C1` (stereo not drawn) [MRGG045276a] yielded a Kd greater than 45 µM.
In turn, `Cc1ccc(CN2CCC(CN(C)C3CC3)C2)s1` (stereo not drawn) [MRGG045327a] came in with a Kd greater than 45 µM.
`N#Cc1cc(CNc2ccccc2CN2CCNC2=O)ccc1F` [MRGG044804a] had a dissociation constant (Kd) greater than 45 µM.
The molecule `Cc1ccccc1CN1CC(=O)N(CC2CCN(c3ccc(F)cc3)C2)C1=O` (stereo not drawn) [MRGG045291a] registered a Kd greater than 45 µM.
As for `CN1CCC2(CCCN(C(=O)c3cccnc3C(N)=O)C2)C1` (stereo not drawn) [MRGG045271a], the figure is greater than 45 µM.
In the case of `COc1cc(C)nc(NC(=O)c2ccoc2C2CC2)n1` [MRGG044772b], the equilibrium dissociation constant (Kd) was greater than 45 µM.
`COC(=O)c1cccc(-c2cccc(NC3CCN(C4CC4)C3)c2)c1` (stereo not drawn) [MRGG045314a] registered a Kd greater than 45 µM.
In turn, `CC(C)(C)OC(=O)N1CCC2(CC(N)c3ccccc3O2)C1` (stereo not drawn) [MRGG044817a] registered a Kd greater than 45 µM.
In turn, `Cc1cccc(C#CCN2C[C@@H]3C[C@H]2CN3C2CC2)c1` [MRGG045294a] gave a dissociation constant (Kd) greater than 45 µM.
In the case of `Cc1c(C(=O)NCc2n[nH]c(N)n2)n(C)c2ccc(F)cc12` [MRGG044784a], the Kd is greater than 45 µM.
`NC12CCCC1CN(C(=O)c1nccc3cccnc13)C2` (stereo not drawn) [MRGG044815a] displayed a dissociation constant (Kd) greater than 45 µM.
`O=c1[nH]nc2n1CCN(Cc1ccccc1CN1CCn3c(n[nH]c3=O)C1)C2` [MRGG045331a] came in with a Kd greater than 45 µM.
With `CN(Cc1ccccc1OCc1ccccc1F)C1CCN(C2CC2)C1` (stereo not drawn) [MRGG045303a], the dissociation constant Kd was greater than 45 µM.
`CC1CCN(c2ccc(C(=O)N3c4ccccc4CC3CO)cc2)C1` (stereo not drawn) [MRGG044805a] gave a Kd greater than 45 µM.
The molecule `Cc1cc(NCC2CCN(C3CC3)C2)nc(-c2cccc([N+](=O)[O-])c2)n1` (stereo not drawn) [MRGG044829a] displayed a Kd greater than 45 µM.
On to `Cc1cc(OCc2ccccc2)nc(N(C)C2CCN(C3CC3)C2)n1` (stereo not drawn) [MRGG045325a], for which the Kd is greater than 45 µM.
Molecule `COc1cccc([C@@H]2[C@@H](NC3CCN(C4CC4)C3)CCN2C2CC2)c1` (stereo partly drawn) [MRGG045319a] showed a dissociation constant (Kd) greater than 45 µM.
Regarding `CN(C)C(=O)CC1CCN(C(=O)c2cc3cc(O)c(O)cc3s2)CC1` [MRGG045286a], the Kd was greater than 45 µM.
Take `CC(NC(=O)c1ccc2c(c1)NC(=O)CO2)c1cccc(Cl)c1` (stereo not drawn) [MRGG044791a]: binding was characterised by a dissociation constant (Kd) of 36 µM.
Turning to `O=C(NC1CCc2ccccc21)c1ccc(Cl)cc1` (stereo not drawn) [MRGG044788a], the dissociation constant (Kd) is greater than 45 µM.
Turning to `O=C(NCc1ccc2c(c1)OCO2)c1ccc2snnc2c1` [MRGG044780a], binding was characterised by a dissociation constant (Kd) of 17 µM.
`Cc1nc(N(C)C)sc1CCNc1cc(C(F)(F)F)cc(C#N)n1` [MRGG044814a] came in with a Kd greater than 45 µM.
In turn, `O=C(NCCc1ccc(O)c(O)c1)Nc1cccc(N2CCNC2=O)c1` [MRGG044825a] yielded a dissociation constant Kd greater than 45 µM.
`NC(=O)C1=NOC(CNC(=O)NCC2CCN(c3ccccc3)C2)C1` (stereo not drawn) [MRGG044840a] showed a Kd greater than 45 µM.
`COc1ccc(C(NC(=O)C2CC(C)=NO2)c2ccc(Cl)cc2)cc1` (stereo not drawn) [MRGG045275a] had a Kd greater than 45 µM.
For `C[C@H]1C(=O)N(CCN2CCc3ccccc32)C(=O)N1C` [MRGG045307a], the Kd is greater than 45 µM.
`Cc1cc(O)c(O)cc1C(=O)N[C@H]1CC(=O)N(C)[C@@H]1c1ccc(Cl)cc1` [MRGG045330a]: the Kd is greater than 45 µM.
As to `Cc1cc(C#N)nc(NC2CC(C)N(C3CC3)C2)n1` (stereo not drawn) [MRGG044798a], the Kd is greater than 45 µM.
In turn, `O=C(NC(CO)c1ccc(Cl)cc1)c1cccc2cn[nH]c12` (stereo not drawn) [MRGG044832a] showed a Kd greater than 45 µM.
Turning to `Cc1cc2ccccc2n1CC(=O)Nc1cc(C(N)=O)ccc1N1CCCC1` [MRGG044789a], the dissociation constant (Kd) is greater than 45 µM.
As for `CC1(C)CN(C(=O)c2snc(O)c2Cl)c2ccc(Cl)cc21` [MRGG045317a], the dissociation constant Kd was greater than 45 µM.
As for `N#Cc1cc(C#N)cc(CNc2cccc(CN3CCCC3=O)c2)c1` [MRGG045333a], the figure is greater than 45 µM; as for `CC(NC(=O)c1cccc(N2CCCC2)c1)(C(=O)O)c1ccccc1` (stereo not drawn) [MRGG044796a], greater than 45 µM; as for `CC1CC(NCC2CCCCCC2)CN1C1CC1` (stereo not drawn) [MRGG045339a], greater than 45 µM.
As to `CC(NC(=O)CCNC(=O)c1ccc(Br)cc1)c1ccc(Cl)cc1` (stereo not drawn) [XSGG051538e], the equilibrium dissociation constant (Kd) was greater than 45 µM.
As for `O=C(NC(CO)C(O)c1ccc(Cl)cc1)c1ccc2ccncc2c1` (stereo not drawn) [MRGG045273a], the figure is greater than 45 µM; as for `CN(CCc1ccccc1)C(=O)Cc1ccc(O)c(O)c1` [UBGG028860b], greater than 45 µM; as for `CCCC(NC(=O)c1cc(O)c(O)cc1C)C(=O)N(C)C` (stereo not drawn) [MRGG045321a], greater than 45 µM.
As for `CCN1CCN(c2ccc(C(=O)N(C)c3cccc(C)c3)cc2F)CC1` [MRGG045277a], the figure is greater than 45 µM.
Molecule `O=C(Nc1ccc2oc(=O)ccc2c1)c1cc(F)c(F)cc1[N+](=O)[O-]` [MRGG044828a] returned a dissociation constant Kd greater than 45 µM.
As for `O=[N+]([O-])c1ccc(N2CCCC2)cc1NCc1ccc(Cl)cc1` [MRGG044778a], the figure is greater than 45 µM.
`Cc1[nH]c2ccccc2c1CC(=O)N(C)C1CCN(C2CC2)C1` (stereo not drawn) [MRGG045290a]: the equilibrium dissociation constant (Kd) is greater than 45 µM.
The molecule `c1nc(NC2CCN(C3CC3)C2)c2ccsc2n1` (stereo not drawn) [MRGG044830a] came in with a Kd greater than 45 µM.
Molecule `O=C(Cc1cn2ccsc2n1)NC1(c2ccc(Cl)cc2)CC1` [MRGG044790a] had a Kd greater than 45 µM.
For `N#Cc1cccc(CN(C=O)C2CC3(CCCC3)Oc3ccccc32)c1` (stereo not drawn) [MRGG045284a], the Kd was greater than 45 µM.
For `CNC(=O)[C@@H](NC(=O)c1ccc2[nH]ccc2n1)C(C)C` [MRGG044793a], the Kd was greater than 45 µM.
As to `COCC1CCN(c2ccc(C(=O)N3C[C@@H]4C[C@H]3CN4C3CC3)cc2)C1` (stereo partly drawn) [MRGG045264a], the dissociation constant (Kd) was greater than 45 µM.
`CC(=O)N1CCCC(C(=O)N(C)CCc2ccc(F)cc2)C1` (stereo not drawn) [MRGG044837a] registered a dissociation constant (Kd) greater than 45 µM.
In the case of `CN(CC1CCN(Cc2ccccc2)C1)C(=O)Cc1cccc(O)c1` (stereo not drawn) [MRGG044819a], the dissociation constant (Kd) was greater than 45 µM.
`N#Cc1ccc(NCc2cc(Cl)cc(C(F)(F)F)c2)cn1` [MRGG044806a] came in with a Kd greater than 45 µM.
On to `COC(=O)c1ccc(C(=O)N2C3CCC2CN(C)C3)cn1` [MRGG045263a], for which the equilibrium dissociation constant (Kd) was greater than 45 µM.
`CNC(=O)c1cccnc1N1C[C@@H]2CN(C)C[C@]2(C)C1` [MRGG045301a] returned a dissociation constant (Kd) greater than 45 µM.
In the case of `CC1(CNC2CCN(C3CC3)C2)CCN(C(=O)OC(C)(C)C)C1` (stereo not drawn) [MRGG045285a], the Kd was greater than 45 µM.
The value for `N#Cc1cccc2c1CCN(C(=O)NCC1CCN(c3ccc(Cl)cc3)C1)C2` (stereo not drawn) [MRGG045297a] was greater than 45 µM; that for `CC(C)(C)OC(=O)NCc1ccc(C(=O)NC2CCN(c3ccc(Cl)cc3)C2)cc1` (stereo not drawn) [MRGG045288a] was greater than 45 µM.
The value for `O=C(NCc1ccc2cnccc2c1)c1snc(O)c1Cl` [MRGG045296a] was greater than 45 µM; that for `CN(C(=O)c1c(C2CC2)nc2sccn12)C1CCN(C2CC2)C1` (stereo not drawn) [MRGG045293a] was greater than 45 µM; that for `Cc1c(C#N)c2ccccc2n1CC(=O)N1CCc2ccccc2C1` [MRGG044779a] was greater than 45 µM.
Molecule `O=C(NC1(c2ccc(F)cc2)COC1)c1ccc2cnccc2c1` [MRGG045267a] displayed a Kd greater than 45 µM.
The molecule `c1ccc2oc(-c3n[nH]cc3CNCC3CCN(C4CC4)C3)cc2c1` (stereo not drawn) [MRGG044801a] yielded a Kd greater than 45 µM.
The molecule `COc1cccc2c1OCCCN(C(=O)c1cn3ccsc3n1)C2` [MRGG044787a] gave a Kd greater than 45 µM.
`O=C(Nc1cccc2cnccc12)c1cccc([N+](=O)[O-])c1` [MRGG044720b] returned a Kd greater than 45 µM.
In turn, `Cc1cc(O)c(O)cc1C(=O)NC1(c2cccc(C#N)c2)CCC1` [MRGG045322a] gave a Kd greater than 45 µM.
`CCC(NC(=O)CN1CCn2cncc2C1)c1ccc(Cl)cc1` (stereo not drawn) [MRGG044822a] gave a Kd greater than 45 µM.
As to `O=C(CCN1C[C@@H]2C[C@H]1CN2C1CC1)NCc1ccccc1Cl` [MRGG045281a], the equilibrium dissociation constant (Kd) was greater than 45 µM.
`CC1CN(C2CC2)CC1NS(=O)(=O)c1cnn(-c2ccccc2)c1` (stereo not drawn) [MRGG044803a] registered a Kd greater than 45 µM.
The molecule `CCN(CC(=O)NCc1cc(Cl)c(Cl)cc1Cl)C1CC1` [MRGG045269a] displayed a Kd greater than 45 µM.
